# Measured values as given in US8691837B2, “Substituted imidazo ring systems and methods” (3M Innovative Properties Company, priority 2003, dated 2014).
# Structures can show the parent of a compound that is named as a salt.
row,SMILES,melting point [°C]
1,"CCCc1nc2c(N)nc3ccccc3c2n1CCCC(=O)OCC [Example 27, Ethyl 4-(4-amino-2-propyl-1H-imidazo[4,5-c]quinolin-1-yl)butyrate]",154 to 156
2,"CCCc1nc2c(N)nc3ccccc3c2n1CCCCCCCCCCCC(=O)N(C)OC (as salt: hydrochloride) [Example 21, 12-(4-Amino-2-propyl-1H-imidazo[4,5-c]quinolin-1-yl)-N-methoxy-N-methyldodecanamide hydrochloride]",156 to 158
3,"CCOCc1nc2c(N)nc3ccccc3c2n1CCCC(=O)N(C)OC [Example 35, 4-[4-Amino-2-(ethoxymethyl)-1H-imidazo[4,5-c]quinolin-1-yl]-N-methoxy-N-methylbutanamide]",163 to 165
4,"CCCCCCC(=O)CCCn1c(CCC)nc2c(N)nc3ccccc3c21 [Example 18, 1-(4-Amino-2-propyl-1H-imidazo[4,5-c]quinolin-1-yl)decan-4-one]",111 to 113
5,"CCCc1nc2c(N)nc3ccccc3c2n1CCC(OCC)OCC [Example 30, 1-(3,3-Diethoxypropyl)-2-propyl-1H-imidazo[4,5-c]quinolin-4-amine]",148 to 150
6,"CCOCc1nc2c(N)nc3ccccc3c2n1CC(=O)CC [Example 37, 1-[4-Amino-2-(ethoxymethyl)-1H-imidazo[4,5-c]quinolin-1-yl]butan-2-one]",187 to 188
7,"CCCc1nc2c(N)nc3ccccc3c2n1CC(OCC)OCC [Example 29, 1-(2,2-Diethoxyethyl)-2-propyl-1H-imidazo[4,5-c]quinolin-4-amine]",148 to 150
8,"CCCc1nc2c(N)nc3ccccc3c2n1CCCCCC(=O)N(C)OC [Example 19, 6-(4-Amino-2-propyl-1H-imidazo[4,5-c]quinolin-1-yl)-N-methoxy-N-methylhexanamide]",134 to 135
9,"CCCc1nc2c(N)nc(C)c(C)c2n1CCCC(C)=O [Example 33, 5-(4-Amino-6,7-dimethyl-2-propyl-1H-imidazo[4,5-c]pyridin-1-yl)pentan-2-one]",148.5 to 149.5
10,"Nc1nc2ccccc2c2c1ncn2CCCCCC(=O)c1ccccc1 [Example 5, 6-(4-Amino-1H-imidazo[4,5-c]quinolin-1-yl)-1-phenylhexan-1-one]",163 to 165
11,"CC(=O)CC(C)(C)Cn1cnc2c(N)nc3ccccc3c21 [Example 32, 5-(4-Amino-1H-imidazo[4,5-c]quinolin-1-yl)-4,4-dimethylpentan-2-one]",214 to 216
12,"CCCc1nc2c(N)nc3ccccc3c2n1CC(C)(C)CC(C)=O [Example 25, 5-(4-Amino-2-propyl-1H-imidazo[4,5-c]quinolin-1-yl)-4,4-dimethylpentan-2-one]",178 to 180
13,"CCCc1nc2c(N)nc3ccccc3c2n1CCCCCC(=O)OCC [Example 28, Ethyl 6-(4-amino-2-propyl-1H-imidazo[4,5-c]quinolin-1-yl)hexanoate]",112 to 113
14,"CCCCc1nc2c(N)nc3ccccc3c2n1CCCCCC(=O)c1ccccc1 [Example 4, 6-(4-Amino-2-butyl-1H-imidazo[4,5-c]quinolin-1-yl)-1-phenylhexan-1-one]",149 to 151
15,"CCCc1nc2c(N)nc3ccccc3c2n1CCCC(=O)N(C)OC [Example 20, 4-(4-Amino-2-propyl-1H-imidazo[4,5-c]quinolin-1-yl)-N-methoxy-N-methylbutyramide]",163 to 165
16,"CCCc1nc2c(N)nc3ccccc3c2n1CCCCCC(C)=O [Example 15, 7-(4-Amino-2-propyl-1H-imidazo[4,5-c]quinolin-1-yl)heptan-2-one]",161 to 163
17,"CCCc1nc2c(N)nc3ccccc3c2n1CCC(=O)OCC [Example 26, Ethyl 3-(4-amino-2-propyl-1H-imidazo[4,5-c]quinolin-1-yl)propionate]",156 to 157
18,"CCCc1nc2c(N)nc3ccccc3c2n1CCCCCCCCCCCC(=O)c1ccccc1 (as salt: hydrochloride) [Example 16, 12-(4-Amino-2-propyl-1H-imidazo[4,5-c]quinolin-1-yl)-1-phenyldodecan-1-one hydrochloride]",195 to 196
19,"CCCc1nc2c(N)nc3ccccc3c2n1CCCC(=O)CC(C)C [Example 17, 1-(4-Amino-2-propyl-1H-imidazo[4,5-c]quinolin-1-yl)-6-methylheptan-4-one]",136 to 138
20,"CCCc1nc2c(N)nc3ccccc3c2n1CCCCC(=O)N(C)OC [Example 36, 5-(4-Amino-2-propyl-1H-imidazo[4,5-c]quinolin-1-yl)-N-methoxy-N-methylpentanamide]",150 to 151

# Continued, values first:
row,melting point [°C],SMILES
1,153 to 155,"CC(C)(Cn1cnc2c(N)nc3ccccc3c21)CC1(C)OCCO1 [Example 31, 1-[2,2-Dimethyl-3-(2-methyl[1,3]dioxolan-2-yl)propyl]-1H-imidazo[4,5-c]quinolin-4-amine]"
2,186 to 188,"CCCc1nc2c(N)nc3ccccc3c2n1CC(C)(C)CC1(C)OCCO1 [Example 23, 1-[2,2-Dimethyl-3-(2-methyl-[1,3]dioxolan-2-yl)propyl]-2-propyl-1H-imidazo[4,5-c]quinolin-4-amine]"
3,193 to 195,"Cc1nc2c(N)nc3ccccc3c2n1CCCC1(C)OCCO1 [Example 6, 2-Methyl-1-[3-(2-methyl-[1,3]dioxolan-2-yl)propyl]-1H-imidazo[4,5-c]quinolin-4-amine]"
4,209 to 211,"Cc1nc2c(N)nc3ccccc3c2n1CC(C)(C)CC1(C)OCCO1 [Example 22, 1-[2,2-Dimethyl-3-(2-methyl-[1,3]dioxolan-2-yl)propyl]-2-methyl-1H-imidazo[4,5-c]quinolin-4-amine]"
5,195 to 196.5,"CCc1nc2c(N)nc3ccccc3c2n1CCCC1(C)OCCO1 [Example 7, 2-Ethyl-1-[3-(2-methyl-[1,3]dioxolan-2-yl)propyl]-1H-imidazo[4,5-c]quinolin-4-amine]"
6,169 to 171.5,"CCCCc1nc2c(N)nc3ccccc3c2n1CCCC1(C)OCCO1 [Example 9, 2-Butyl-1-[3-(2-methyl-[1,3]dioxolan-2-yl)propyl]-1H-imidazo[4,5-c]quinolin-4-amine]"
7,150 to 152,"CCOCc1nc2c(N)nc3ccccc3c2n1CCCC1(C)OCCO1 [Example 10, 2-Ethoxymethyl-1-[3-(2-methyl-[1,3]dioxolan-2-yl)propyl]-1H-imidazo[4,5-c]quinolin-4-amine]"
8,173 to 175,"CCOCc1nc2c(N)nc3ccccc3c2n1CCCC(C)=O [Example 14, 5-(4-Amino-2-ethoxymethyl-1H-imidazo[4,5-c]quinolin-1-yl)pentan-2-one]"
9,176 to 177,"CCCc1nc2c(N)nc3ccccc3c2n1CCCC(C)=O [Example 13, 5-(4-Amino-2-propyl-1H-imidazo[4,5-c]quinolin-1-yl)pentan-2-one]"
10,206 to 208,"CCc1nc2c(N)nc3ccccc3c2n1CCCC(C)=O [Example 12, 5-(4-Amino-2-ethyl-1H-imidazo[4,5-c]quinolin-1-yl)pentan-2-one]"
11,129 to 131,"CCOCc1nc2c(N)nc3ccccc3c2n1CCCC(=O)OCC [Example 34, Ethyl 4-[4-amino-2-(ethoxymethyl)-1H-imidazo[4,5-c]quinolin-1-yl]butanoate]"
12,223 to 225,"CC(=O)CC(C)(C)Cn1c(C)nc2c(N)nc3ccccc3c21 [Example 24, 5-(4-Amino-2-methyl-1H-imidazo[4,5-c]quinolin-1-yl)-4,4-dimethylpentan-2-one]"
13,194 to 196,"CC(=O)CCCn1c(C)nc2c(N)nc3ccccc3c21 [Example 11, 5-(4-Amino-2-methyl-1H-imidazo[4,5-c]quinolin-1-yl)pentan-2-one]"
14,173 to 176,"CCCCc1nc2c(N)nc3ccccc3c2n1CCCC(C)=O [Example 2, 5-(4-Amino-2-butyl-1H-imidazo[4,5-c]quinolin-1-yl)pentan-2-one]"
15,184 to 186,"CCCc1nc2c(N)nc3ccccc3c2n1CCCC1(C)OCCO1 [Example 8, 1-[3-(2-Methyl-[1,3]dioxolan-2-yl)propyl]-2-propyl-1H-imidazo[4,5-c]quinolin-4-amine]"
